Reference: ChEMBL document CHEMBL1140040, “Synthesis and cytotoxic activity of some novel polycyclic gamma-butyrolactones” (Bioorg Med Chem Lett, 2008)
Each block holds one compound with its values, some of them ahead of it.

Key:
[1] = system: DU-145; experiment: Cytotoxicity against human DU145 cells assessed as age growth inhibition at 10 uM after 48 hrs by sulforhodamine B assay; type: functional; details: DU-145, 48 h, read-out: GI
[2] = system: SF-295; experiment: Cytotoxicity against human SF295 cells assessed as age growth inhibition at 50 uM after 48 hrs by sulforhodamine B assay; type: functional; details: SF-295, 48 h, read-out: GI
[3] = system: HCT-15; experiment: Cytotoxicity against human HCT15 cells assessed as age growth inhibition at 10 uM after 48 hrs by sulforhodamine B assay; type: functional; details: HCT-15, 48 h, read-out: GI
[4] = system: HEp-2; experiment: Antiproliferative activity against human HEP2 cells after 48 hrs by sulforhodamine B assay; type: functional, cell-based; details: HEp-2, 48 h
[5] = system: A549; experiment: Cytotoxicity against human A549 cells assessed as age growth inhibition at 100 uM after 48 hrs by sulforhodamine B assay; type: functional; details: A549, 48 h, read-out: GI
[6] = system: DU-145; experiment: Cytotoxicity against human DU145 cells assessed as age growth inhibition at 100 uM after 48 hrs by sulforhodamine B assay; type: functional; details: DU-145, 48 h, read-out: GI
[7] = system: COLO 205; experiment: Antiproliferative activity against human COLO205 cells after 48 hrs by sulforhodamine B assay; type: functional, cell-based; details: COLO 205, 48 h
[8] = system: HCT-15; experiment: Cytotoxicity against human HCT15 cells assessed as age growth inhibition at 100 uM after 48 hrs by sulforhodamine B assay; type: functional; details: HCT-15, 48 h, read-out: GI
[9] = system: HOP-62; experiment: Antiproliferative activity against human HOP62 cells after 48 hrs by sulforhodamine B assay; type: functional, cell-based; details: HOP-62, 48 h
[10] = system: HCT-15; experiment: Antiproliferative activity against human HCT15 cells after 48 hrs by sulforhodamine B assay; type: functional, cell-based; details: HCT-15, 48 h
[11] = system: COLO 205; experiment: Cytotoxicity against human COLO205 cells assessed as age growth inhibition at 10 uM after 48 hrs by sulforhodamine B assay; type: functional; details: COLO 205, 48 h, read-out: GI
[12] = system: DU-145; experiment: Antiproliferative activity against human DU145 cells after 48 hrs by sulforhodamine B assay; type: functional, cell-based; details: DU-145, 48 h
[13] = system: SK-OV-3; experiment: Cytotoxicity against human SKOV3 cells assessed as age growth inhibition at 50 uM after 48 hrs by sulforhodamine B assay; type: functional; details: SK-OV-3, 48 h, read-out: GI
[14] = system: HEp-2; experiment: Cytotoxicity against human HEP2 cells assessed as age growth inhibition at 100 uM after 48 hrs by sulforhodamine B assay; type: functional; details: HEp-2, 48 h, read-out: GI
[15] = system: A549; experiment: Cytotoxicity against human A549 cells assessed as age growth inhibition at 50 uM after 48 hrs by sulforhodamine B assay; type: functional; details: A549, 48 h, read-out: GI
[16] = system: DU-145; experiment: Cytotoxicity against human DU145 cells assessed as age growth inhibition at 50 uM after 48 hrs by sulforhodamine B assay; type: functional; details: DU-145, 48 h, read-out: GI
[17] = system: SK-OV-3; experiment: Cytotoxicity against human SKOV3 cells assessed as age growth inhibition at 10 uM after 48 hrs by sulforhodamine B assay; type: functional; details: SK-OV-3, 48 h, read-out: GI
[18] = system: SF-295; experiment: Antiproliferative activity against human SF295 cells after 48 hrs by sulforhodamine B assay; type: functional, cell-based; details: SF-295, 48 h
[19] = system: IGROV-1; experiment: Cytotoxicity against human IGROV1 cells assessed as age growth inhibition at 50 uM after 48 hrs by sulforhodamine B assay; type: functional; details: IGROV-1, 48 h, read-out: GI
[20] = system: HOP-62; experiment: Cytotoxicity against human HOP62 cells assessed as age growth inhibition at 10 uM after 48 hrs by sulforhodamine B assay; type: functional; details: HOP-62, 48 h, read-out: GI
[21] = system: HEp-2; experiment: Cytotoxicity against human HEP2 cells assessed as age growth inhibition at 10 uM after 48 hrs by sulforhodamine B assay; type: functional; details: HEp-2, 48 h, read-out: GI
[22] = system: HOP-62; experiment: Cytotoxicity against human HOP62 cells assessed as age growth inhibition at 100 uM after 48 hrs by sulforhodamine B assay; type: functional; details: HOP-62, 48 h, read-out: GI
[23] = system: HOP-62; experiment: Cytotoxicity against human HOP62 cells assessed as age growth inhibition at 50 uM after 48 hrs by sulforhodamine B assay; type: functional; details: HOP-62, 48 h, read-out: GI
[24] = system: A549; experiment: Antiproliferative activity against human A549 cells after 48 hrs by sulforhodamine B assay; type: functional, cell-based; details: A549, 48 h
[25] = system: SF-295; experiment: Cytotoxicity against human SF295 cells assessed as age growth inhibition at 100 uM after 48 hrs by sulforhodamine B assay; type: functional; details: SF-295, 48 h, read-out: GI
[26] = system: SK-OV-3; experiment: Cytotoxicity against human SKOV3 cells assessed as age growth inhibition at 100 uM after 48 hrs by sulforhodamine B assay; type: functional; details: SK-OV-3, 48 h, read-out: GI
[27] = system: SF-295; experiment: Cytotoxicity against human SF295 cells assessed as age growth inhibition at 10 uM after 48 hrs by sulforhodamine B assay; type: functional; details: SF-295, 48 h, read-out: GI
[28] = system: IGROV-1; experiment: Cytotoxicity against human IGROV1 cells assessed as age growth inhibition at 100 uM after 48 hrs by sulforhodamine B assay; type: functional; details: IGROV-1, 48 h, read-out: GI
[29] = system: HEp-2; experiment: Cytotoxicity against human HEP2 cells assessed as age growth inhibition at 50 uM after 48 hrs by sulforhodamine B assay; type: functional; details: HEp-2, 48 h, read-out: GI
[30] = system: COLO 205; experiment: Cytotoxicity against human COLO205 cells assessed as age growth inhibition at 100 uM after 48 hrs by sulforhodamine B assay; type: functional; details: COLO 205, 48 h, read-out: GI
[31] = system: HCT-15; experiment: Cytotoxicity against human HCT15 cells assessed as age growth inhibition at 50 uM after 48 hrs by sulforhodamine B assay; type: functional; details: HCT-15, 48 h, read-out: GI
[32] = system: A549; experiment: Cytotoxicity against human A549 cells assessed as age growth inhibition at 10 uM after 48 hrs by sulforhodamine B assay; type: functional; details: A549, 48 h, read-out: GI
[33] = system: IGROV-1; experiment: Antiproliferative activity against human IGROV1 cells after 48 hrs by sulforhodamine B assay; type: functional, cell-based; details: IGROV-1, 48 h
[34] = system: COLO 205; experiment: Cytotoxicity against human COLO205 cells assessed as age growth inhibition at 50 uM after 48 hrs by sulforhodamine B assay; type: functional; details: COLO 205, 48 h, read-out: GI
[35] = system: SK-OV-3; experiment: Antiproliferative activity against human SKOV3 cells after 48 hrs by sulforhodamine B assay; type: functional, cell-based; details: SK-OV-3, 48 h
[36] = system: IGROV-1; experiment: Cytotoxicity against human IGROV1 cells assessed as age growth inhibition at 10 uM after 48 hrs by sulforhodamine B assay; type: functional; details: IGROV-1, 48 h, read-out: GI

IC50 [7]: 99.2 µM | IC50 [10]: 77.1 µM | IC50 [12]: > 100 µM | IC50 [24]: 89.1 µM | IC50 [35]: > 100 µM
Compound: COc1ccc([C@H]2OC(=O)[C@@H]3C=C4C(C)(C)CCC[C@]4(C)[C@H]23)cc1
inhibition of growth at 10 µM [1]: 8% | inhibition of growth at 50 µM [2]: 16% | inhibition of growth at 10 µM [3]: 16% | IC50 [4]: > 100 µM | inhibition of growth at 100 µM [5]: 55% | inhibition of growth at 100 µM [6]: 43% | inhibition of growth at 100 µM [8]: 55% | IC50 [9]: 94.8 µM | inhibition of growth at 10 µM [11]: 0% | inhibition of growth at 50 µM [13]: 0% | inhibition of growth at 100 µM [14]: 27% | inhibition of growth at 50 µM [15]: 31% | inhibition of growth at 50 µM [16]: 12% | inhibition of growth at 10 µM [17]: 0% | IC50 [18]: > 100 µM | inhibition of growth at 50 µM [19]: 30% | inhibition of growth at 10 µM [20]: 10% | inhibition of growth at 10 µM [21]: 3% | inhibition of growth at 100 µM [22]: 52% | inhibition of growth at 50 µM [23]: 30% | inhibition of growth at 100 µM [25]: 16% | inhibition of growth at 100 µM [26]: 21% | inhibition of growth at 10 µM [27]: 0% | inhibition of growth at 100 µM [28]: 51% | inhibition of growth at 50 µM [29]: 23% | inhibition of growth at 100 µM [30]: 52% | inhibition of growth at 50 µM [31]: 45% | inhibition of growth at 10 µM [32]: 8% | IC50 [33]: 94.2 µM | inhibition of growth at 50 µM [34]: 15% | inhibition of growth at 10 µM [36]: 3%

Compound: COc1cccc2c1C(=O)c1c(O)c3c(c(O)c1C2=O)C[C@@](O)(C(=O)CO)C[C@@H]3O[C@H]1C[C@H](N)[C@H](O)[C@H](C)O1 [DOXORUBICIN]
inhibition of growth at 10 µM [1]: 64% | inhibition of growth at 10 µM [3]: 54% | inhibition of growth at 10 µM [20]: 69% | inhibition of growth at 10 µM [27]: 54% | inhibition of growth at 10 µM [32]: 47%

Compound: CO[C@@]12[C@H](COC(N)=O)C3=C(C(=O)C(C)=C(N)C3=O)N1C[C@@H]1N[C@@H]12 [MITOMYCIN]
inhibition of growth at 10 µM [1]: 63% | inhibition of growth at 10 µM [32]: 55%

Compound: CC(=O)O[C@H]1C(=O)[C@@]2(C)[C@H]([C@H](OC(=O)c3ccccc3)[C@]3(O)C[C@H](OC(=O)[C@H](O)[C@@H](NC(=O)c4ccccc4)c4ccccc4)C(C)=C1C3(C)C)[C@]1(OC(C)=O)CO[C@@H]1C[C@@H]2O [PACLITAXEL]
inhibition of growth at 10 µM [1]: 52% | inhibition of growth at 10 µM [3]: 40% | inhibition of growth at 10 µM [11]: 9% | inhibition of growth at 10 µM [20]: 26% | inhibition of growth at 10 µM [21]: 29% | inhibition of growth at 10 µM [27]: 22% | inhibition of growth at 10 µM [32]: 40% | inhibition of growth at 10 µM [36]: 15%
